This is an account of results in patent US11484598B1, “Pleuromulin rhein ester with anti-drug resistant bacteria activity and a method of preparing the same” (XI'AN KANGYUANSHENG BIOMEDICAL TECHNOLOGY CO., LTD., priority 2021, dated 2022).

Values after ≈ are worked out from the molar mass of the structure shown. Some results are limits rather than exact numbers.

What all share (assay type): cell-based
In experiment [1] the test system is methicillin-resistant Staphylococcus aureus MRSA 18-575. Briefly: MIC by microbroth dilution method, MRSA 18-575. As to conditions: for Minimum bacteriostatic concentration: strain MRSA 18-575, 37° C., 20-22 hours. The protocol: (§1) The minimal inhibitory concentration (MIC) of the compounds as determined by microbroth dilution method was measured with ceftazidime and vancomycin as positive control.
(§2) The experimental strains included drug-resistant gram-positive bacteria: methicillin-resistant Staphylococcus aureus MRSA 18-575; drug-resistant gram-negative bacteria: multi-drug-resistant Pseudomonas aeruginosa MDR-PA 18-126, 18-756, Carbapenem-resistant Acinetobacter baumannii CR-AB 18-184, 18-560. The experimental strains were all donated by Huashan Hospital Affiliated to Fudan University (Fudan University Antibiotic Research Institute), and used after being identified by conventional methods.
(§3) Preparation of MHB medium: 20.0 g NMB medium was added to 1 L distilled water, boiled until completely dissolved, packed in conical bottles and sterilized at 121° C. for 15 min.
(§4) The experimental strain was cultured to the logarithmic growth phase: under aseptic condition, the experimental strain was inoculated into 100 mL NMB medium and incubated in a constant temperature and humidity incubator at 37° C. for 20-22 hours.
(§5) Preparation of storage solution: weighing the sample to be tested, dissolving it with 1% DMSO solution, preparing a storage solution with a concentration of 2560 μg/mL, weighing a positive reference substance, dissolving it with aseptic distilled water, and configuring a stock solution with a concentration of 2560 μg/mL.
(§6) Preparation of bacterial suspension: under aseptic condition, the experimental strains cultured to logarithmic growth phase were adjusted to 0.5 MCF turbidity standard with MHB medium and diluted according to 1:10, and the bacterial suspension with concentration of 10^6 CFU/mL was prepared for standby.
(§7) Stock solution dilution and inoculation of experimental strains: under aseptic conditions, diluting the stock solution to a solution of 256 μg/mL, taking a sterile 96-well plate, adding 100 μL of MHB medium to each well except for the first and second wells; adding 100 μL of positive control solution to the first well, and adding 100 μL of compound sample solution to the second and third wells; mixing the sample solution in the 3 wells with the medium, and then pipetting 100 μL to the 4th well, and then pipetting 100 μL to the 5th well after mixing, and then diluting to the 9th well in a series of times, and drawing 100 μL from the 9th well and discard, the 10th well is a growth control without drugs; then, adding 100 μL of the above-prepared bacterial suspension to each well to make the final bacterial concentration of each well 5×10^5 CFU/mL; the positive control concentration was 128 μg/mL, the concentrations of the sample solution were 128, 64, 32, 16, 8, 4, 2, 1 μg/mL.
(§8) Incubation: covering the 96-well plate inoculated with the experimental strains, and incubating in a constant temperature and humidity box at 37° C. for 20-22 hours.
A general note: Dilution methods test growth across graded concentrations, often in twofold steps.

Experiment [2] deals with multi-drug-resistant Pseudomonas aeruginosa MDR-PA 18-126. As to the kind of experiment: MIC by microbroth dilution method, MDR-PA 18-126. As to conditions: for Minimum bacteriostatic concentration: strain MDR-PA 18-126, 37° C., 20-22 hours. The protocol:
as §1, §2, §3, §4, §5, §6, §7, §8

For experiment [3], the system named is Carbapenem-resistant Acinetobacter baumannii CR-AB 18-184. Briefly: MIC by microbroth dilution method, CR-AB 18-184. As to conditions: for Minimum bacteriostatic concentration: strain CR-AB 18-184, 37° C., 20-22 hours. The protocol:
as §1, §2, §3, §4, §5, §6, §7, §8

Experiment [4] has as its system multi-drug-resistant Pseudomonas aeruginosa MDR-PA 18-756. Briefly: MIC by microbroth dilution method, MDR-PA 18-756. The following applies: strain MDR-PA 18-756; 37° C., 20-22 hours. The procedure: as §1, §2, §3, §4, §5, §6
as §7, with “μg/mL. […]” for “μg/mL.”

The test system of experiment [5] is Carbapenem-resistant Acinetobacter baumannii CR-AB 18-560. As to the kind of experiment: MIC by microbroth dilution method, CR-AB 18-560. The following applies: strain CR-AB 18-560; 37° C., 20-22 hours. The protocol:
as §1, §2, §3, §4, §5, §6
as §7, with “μg/mL. […]” for “μg/mL.”

Another experiment relates to drug-resistant bacteria. As to the kind of experiment: Antibacterial activity test, summary over all experimental strains. As to conditions: text summary of FIG. 1-5 and Table 1. The protocol:
as §1, §2, §3
The experimental strain was cultured to the logarithmic growth phase: under aseptic condition, the experimental strain was inoculated into 100 mL NMB medium and incubated in a constant temperature and humidity incubator at 37° C. for 20-22 hours. […]

As a reminder, the MIC is the lowest concentration found to suppress growth.

As for `CC(C)(O/N=C(\C(=O)N[C@@H]1C(=O)N2C(C(=O)[O-])=C(C[n+]3ccccc3)CS[C@H]12)c1csc(N)n1)C(=O)O` [Ceftazidime], the Minimum bacteriostatic concentration in experiment [1], in experiment [2], in experiment [3], in experiment [4] and in experiment [5] was 128 µg/mL each time.
As for `C=C[C@@]1(C)C[C@H](OC(=O)COC(=O)c2cc(O)c3c(c2)C(=O)c2cccc(O)c2C3=O)[C@]2(C)C3C(=O)CC[C@]3(CC[C@@H]2C)[C@H](C)[C@H]1O` (some centres unmarked) [Pleuromulin rhein ester], the MIC in experiment [1] (Staphylococcus aureus, MRSA) amounted to 64 µg/mL (≈ 99.3 µM); in experiment [2] (Pseudomonas aeruginosa, MDR-PA, strain number not stated (64 matches 18-126)), 64 µg/mL (≈ 99.3 µM); in experiment [3] (Acinetobacter baumannii, CR-AB, strain number not stated (64 matches 18-184)) it was 64 µg/mL (≈ 99.3 µM). Besides, the Minimum bacteriostatic concentration in experiment [1] was 64 µg/mL; in experiment [2], 64 µg/mL; in experiment [3] it was 64 µg/mL; in experiment [4], greater than 128 µg/mL; in experiment [5], greater than 128 µg/mL.
In the case of `C=C[C@]1(C)C[C@@H](OC(=O)CO)[C@]2(C)[C@H](C)CC[C@]3(CCC(=O)[C@H]32)[C@@H](C)[C@@H]1O` [Pleuromulin], the “inhibitory effect on drug-resistant bacteria” value with drug-resistant bacteria is listed as “no inhibitory effect”. Also, the Minimum bacteriostatic concentration in experiment [1], in experiment [2], in experiment [3], in experiment [4] and in experiment [5] was greater than 128 µg/mL in each case.
Take `O=C(O)c1cc(O)c2c(c1)C(=O)c1cccc(O)c1C2=O` [Rhein]: in the experiment with drug-resistant bacteria, the “inhibitory effect on drug-resistant bacteria” value is on record as “no inhibitory effect”. For the same compound, the Minimum bacteriostatic concentration in experiment [1], in experiment [2], in experiment [3], in experiment [4] and in experiment [5] was greater than 128 µg/mL each time.
`CN[C@H](CC(C)C)C(=O)N[C@H]1C(=O)N[C@@H](CC(N)=O)C(=O)N[C@H]2C(=O)N[C@H]3C(=O)N[C@H](C(=O)N[C@H](C(=O)O)c4cc(O)cc(O)c4-c4cc3ccc4O)[C@H](O)c3ccc(c(Cl)c3)Oc3cc2cc(c3O[C@@H]2O[C@H](CO)[C@@H](O)[C@H](O)[C@H]2O[C@H]2C[C@](C)(N)[C@H](O)[C@H](C)O2)Oc2ccc(cc2Cl)[C@H]1O` [Vancomycin]: the Minimum bacteriostatic concentration in experiment [1] was found to be 512 µg/mL.
